From PubChem BioAssay AID2060492 (Molecular Pharmacology Branch, DTP, NCI, 2025)

System: 695427-040-R-J1-PDC complex spheroids, viability percent T/C
Assay: Anticancer human tumor 695427-040-R-J1-PDC patient-derived colon adenocarcinoma cell line growth inhibition [GQUAD]
Conditions: for IC50: curve of first compound; for viability, T/C: stronger effect = lower value
Procedure, shortened: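 Viability of tumor cells grown as complex spheroids with endothelial and stromal cells, exposed to drug combinations. Top concentration at or near clinical Cmax (else 10 microM), diluted in half-log increments.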

[1] = second compound 0.0316 µM, first compound 0.0316 µM
[2] = second compound 0.0316 µM, first compound 0.316 µM
[3] = second compound 0.1 µM, first compound 0.0316 µM
[4] = second compound 0.1 µM, first compound 0.316 µM
[5] = second compound 0.316 µM, first compound 0.0316 µM
[6] = second compound 0.316 µM, first compound 0.316 µM
[7] = second compound 1 µM, first compound 0.0316 µM
[8] = second compound 1 µM, first compound 0.316 µM
[9] = second compound 3.16 µM, first compound 0.0316 µM
[10] = second compound 3.16 µM, first compound 0.316 µM
[11] = second compound 10 µM, first compound 0.0316 µM
[12] = second compound 10 µM, first compound 0.316 µM
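Note: spheroids exposed to compounds for seven days before readout.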

## C=CC(=O)N1CCN(c2nc(=O)n(-c3c(C)ccnc3C(C)C)c3nc(-c4c(O)cccc4F)c(F)cc23)C(C)C1 (centres undefined) + Cc1[nH]c2ccc(F)cc2c1-c1nc2c3cccnc3c3ncccc3c2[nH]1
Second compound 0.0316 µM
  IC50: > 10 µM
Second compound 0.1 µM
  IC50: > 10 µM
Second compound 0.316 µM
  IC50: > 10 µM
Second compound 1 µM
  IC50: > 10 µM
Second compound 3.16 µM
  IC50: > 10 µM
Second compound 10 µM
  IC50: > 10 µM
[1]
  viability, T/C: 108%
Second compound 0.0316 µM, first compound 0.1 µM
  viability, T/C: 86%
[2]
  viability, T/C: 107%
Second compound 0.0316 µM, first compound 1 µM
  viability, T/C: 83%
Second compound 0.0316 µM, first compound 3.16 µM
  viability, T/C: 93.2%
Second compound 0.0316 µM, first compound 10 µM
  viability, T/C: 90.2%
[3]
  viability, T/C: 101%
Second compound 0.1 µM, first compound 0.1 µM
  viability, T/C: 87.6%
[4]
  viability, T/C: 99.9%
Second compound 0.1 µM, first compound 1 µM
  viability, T/C: 67.8%
Second compound 0.1 µM, first compound 3.16 µM
  viability, T/C: 104%
Second compound 0.1 µM, first compound 10 µM
  viability, T/C: 106%
[5]
  viability, T/C: 102%
Second compound 0.316 µM, first compound 0.1 µM
  viability, T/C: 95.7%
[6]
  viability, T/C: 84.2%
Second compound 0.316 µM, first compound 1 µM
  viability, T/C: 94.8%
Second compound 0.316 µM, first compound 3.16 µM
  viability, T/C: 86.9%
Second compound 0.316 µM, first compound 10 µM
  viability, T/C: 92.8%
[7]
  viability, T/C: 80.5%
Second compound 1 µM, first compound 0.1 µM
  viability, T/C: 90%
[8]
  viability, T/C: 79.6%
Second compound 1 µM, first compound 1 µM
  viability, T/C: 101%
Second compound 1 µM, first compound 3.16 µM
  viability, T/C: 104%
Second compound 1 µM, first compound 10 µM
  viability, T/C: 76.8%
[9]
  viability, T/C: 69%
Second compound 3.16 µM, first compound 0.1 µM
  viability, T/C: 77.1%
[10]
  viability, T/C: 81.5%
Second compound 3.16 µM, first compound 1 µM
  viability, T/C: 86.5%
Second compound 3.16 µM, first compound 3.16 µM
  viability, T/C: 90.3%
Second compound 3.16 µM, first compound 10 µM
  viability, T/C: 86.8%
[11]
  viability, T/C: 73.6%
Second compound 10 µM, first compound 0.1 µM
  viability, T/C: 81.2%
[12]
  viability, T/C: 86.2%
Second compound 10 µM, first compound 1 µM
  viability, T/C: 82.7%
Second compound 10 µM, first compound 3.16 µM
  viability, T/C: 81.8%
Second compound 10 µM, first compound 10 µM
  viability, T/C: 69.1%

## CC[C@@]1(O)C(=O)OCc2c1cc1n(c2=O)Cc2cc3c(CN(C)C)c(O)ccc3nc2-1 + Cc1[nH]c2ccc(F)cc2c1-c1nc2c3cccnc3c3ncccc3c2[nH]1
Second compound 0.0316 µM
  IC50: > 0.316 µM
Second compound 0.1 µM
  IC50: > 0.316 µM
Second compound 0.316 µM
  IC50: > 0.316 µM
Second compound 1 µM
  IC50: > 0.316 µM
Second compound 3.16 µM
  IC50: > 0.316 µM
Second compound 10 µM
  IC50: > 0.316 µM
Second compound 0.0316 µM, first compound 0.000999 µM
  viability, T/C: 108%
Second compound 0.0316 µM, first compound 0.00316 µM
  viability, T/C: 105%
Second compound 0.0316 µM, first compound 0.00999 µM
  viability, T/C: 109%
[1]
  viability, T/C: 71.5%
Second compound 0.0316 µM, first compound 0.0999 µM
  viability, T/C: 98.3%
[2]
  viability, T/C: 82.1%
Second compound 0.1 µM, first compound 0.000999 µM
  viability, T/C: 94.5%
Second compound 0.1 µM, first compound 0.00316 µM
  viability, T/C: 89.4%
Second compound 0.1 µM, first compound 0.00999 µM
  viability, T/C: 94.1%
[3]
  viability, T/C: 78.7%
Second compound 0.1 µM, first compound 0.0999 µM
  viability, T/C: 94.2%
[4]
  viability, T/C: 89.8%
Second compound 0.316 µM, first compound 0.000999 µM
  viability, T/C: 97.3%
Second compound 0.316 µM, first compound 0.00316 µM
  viability, T/C: 90.4%
Second compound 0.316 µM, first compound 0.00999 µM
  viability, T/C: 92.9%
[5]
  viability, T/C: 88.2%
Second compound 0.316 µM, first compound 0.0999 µM
  viability, T/C: 101%
[6]
  viability, T/C: 78.9%
Second compound 1 µM, first compound 0.000999 µM
  viability, T/C: 85.2%
Second compound 1 µM, first compound 0.00316 µM
  viability, T/C: 97.2%
Second compound 1 µM, first compound 0.00999 µM
  viability, T/C: 92.6%
[7]
  viability, T/C: 95%
Second compound 1 µM, first compound 0.0999 µM
  viability, T/C: 91.3%
[8]
  viability, T/C: 73.2%
Second compound 3.16 µM, first compound 0.000999 µM
  viability, T/C: 62.5%
Second compound 3.16 µM, first compound 0.00316 µM
  viability, T/C: 82.9%
Second compound 3.16 µM, first compound 0.00999 µM
  viability, T/C: 79.3%
[9]
  viability, T/C: 72.4%
Second compound 3.16 µM, first compound 0.0999 µM
  viability, T/C: 84.4%
[10]
  viability, T/C: 77.3%
Second compound 10 µM, first compound 0.000999 µM
  viability, T/C: 58.9%
Second compound 10 µM, first compound 0.00316 µM
  viability, T/C: 78.8%
Second compound 10 µM, first compound 0.00999 µM
  viability, T/C: 83.8%
[11]
  viability, T/C: 78.2%
Second compound 10 µM, first compound 0.0999 µM
  viability, T/C: 89.5%
[12]
  viability, T/C: 73.1%
